Holding throughout (type): cell-based, Wistar rats
The subject of assay [1] is caspase-12 and cleaved caspase-12. The experiment in a line: Western blot of caspase-12 and cleaved caspase-12 in TM-induced cardiac muscle cells. Particulars: TM 5 μg/ml induction alone. The method, then: (12000 rpm×10 min), collected supernatant. Nitrocellulose membrane was dipped in a transferring buffer for 15-20 min in advance. Sampled in 50 μg protein/lane, subjected to 10% polyacrylamide gel SDS-PAGE electrophoretic separation, the gel was then tiled in electrotransferring clamp, in which sponge, filter paper, gel, nitrocellulose membrane, filter paper and sponge were mounted from negative electrode to positive electrode in order. Constant current 350 mA, electrotransferred for 45 min. Electrotransferring membrane to […], the nitrocellulose membrane was taken out, the membrane was washed with TBST for 2 min, sealed with 5% defatted milk powder at room temperature for 1 h, added with first antibody (1:1000) and incubated at 4° C. overnight, the membrane was washed with TBST, 3 times×5 min, then […] second antibody was added, incubated at room temperature for 1 h, washed with TBST, 3 times×5 min, soaked separately with TSM1 and TSM2 for 5 min and 10 min, developed with chromogenic substrates 6.6 μl NBT and 3.3 μl BCIP dissolved in 1 ml of TSM2, after bonds become clear, the reaction was terminated by washing with water. After the end of development, the records were stored by scanning or taking photos.

Assay [2] has as its system cardiac muscle cells induced by Tunicamycin (TM). In words: Survival rate of TM-induced cardiac muscle cells detected by MTT method. Particulars: TM 5 μg/ml alone, MTT. How it is done:
The separation and culture of cardiomyocyte refer to the method of differential adhesion separation (Kreider, A. Messing, H. Doan, S. U. Kim, R. P. Lisak and D. E. Pleasure, Enrichment of Schwann cell cultures from neonatal rat sciatic nerve by differential adhesion, Brain Res 2 (1981), pp. 433-444.), Wistar neonate rats newly born within 24 h were used to obtain primary cardiac muscle cells.
The separated cardiac muscle cells were inoculated in an amount of 10^4 cells per well to a 96-well plate, and the volume of each well was 100 μl (marginal wells were filled with sterile PBS). […] After continuous inoculation, each well was added with 20 μl of MTT solution (5 mg/ml, formulated with PBS (pH=7.4), i.e., 0.5% MTT), and the cultivation was continued for 4 h. After the end of cultivation, culture medium in wells was carefully sucked out. Each well was added with 150 μl of DMSO, shaken at a low speed in a shaking table for 10 min, so that the crystal was sufficiently dissolved. The optical density (OD) value of each well was measured at wavelength of 490 nm by enzyme-linked immunoassay instrument, and each well was repeatedly measured for 3 times and the results were recorded. The cell survival rate at each time point was calculated according to: […], and a cell growth curve was drawn by using time as abscissa and optical density as ordinate.

Assay [3] relates to primary cardiac muscle cells induced by TM. The experiment in a line: Cardiomyocyte apoptosis induced by TM, TUNEL detection. Particulars: TM 5 μg/mL alone, 24 h, n = 6. The method, then:
(§1) The primary cardiac muscle cells obtained by the method according to the culture method of primary cardiac muscle cells of Example 1 were added with tunicamycin (TM) on the 4th day to perform interference test. The cells were randomly divided into 5 groups: solvent control group (DMSO), TM interference group (5 μg/ml), Compound of Formula I+TM interference group (10 μM+5 μg/ml), Compound of Formula I interference group ([…]+5 μg/ml), Compound of Formula I interference group ([…]+5 μg/ml).
It was 24 h after drug interference, the apoptotic cells were detected by terminal deoxynucleotidyl transferase-mediated biotinylated UTP nick end labeling (TUNEL) method, and the cells were treated according to the specification of kit. The cells treated with 0.1 mg/ml DNase I and growing on a glass slide were used as positive control. 5 or more visual fields were randomly selected under light microscope, the apoptotic cells (brown yellow granules seen in nucleus) among the cells were counted. Apoptosis rat=(number of positively stained nuclei/number of all nuclei)×100%.

Assay [4] shares this test system. In words: Cardiomyocyte apoptosis induced by TM, AnnexinV-FITC flow cytometer. The settings on record: TM 5 μg/ml alone, 24 h. The method, then:
as §1
it is 24 h after drug interference, the cells were treated by the method of AnnexinV-FITC apoptosis kit, and the apoptosis was detected within 1 h by using a flow cytometer (BD ACScalibur, US Becton-Dickinson Company). For each sample, 14000 cells were collected and analyzed, the test was repeated for 3 times, and the average value was used as a result.
(A flow cytometer gives signals particle by particle.)

“And” between values parts separate entries of the source, which are not always exact repeats. Equal values may be shown once. Marks after values point to notes of the source that are not given here.

With Tunicamycin [TM, reference compound], the “expression of Cleaved caspase-12” value in assay [1] was “obviously expressed”. Moreover, the “Cell survival rate (%)” value in assay [2] was determined as 58.8699 ± 10.7785 %. For the same substance, in assay [3], the “TUNEL detection (%) cardiomyocyte apoptosis rate” value is 30.84 ± 1.26 ^a %. Also, the “Cardiomyocyte apoptosis rate detected by flow cytometer (%)” value in assay [4] is 29.98% and 29.98 ± 1.22^a %.

For the origin of these results see patent publication US8859587B2, “(2E)-3-phenyl-N-[2,2,2-Trifluoro-1-[[8-quinolineamino)thiomethyl]amino]ethyl]-2-acrylamide and pharmaceutical uses thereof” (Chinese PLA General Hospital, priority 2010, dated 2014).
